# Source: patent publication US7799812B2, “Reverse isoxazoles” (Novartis AG, priority 2006, dated 2010)
# Biological target: T1, human EDG-1 (S1P1) (Homo sapiens, UniProt P21453)
# T1 construct: c-myc (N); expressed in transfected cells
# Experiment: S1P1 (EDG-1) GTP [γ-35S] binding assay, membranes from CHO cells
# Format: biochemical
# Procedure: A. In vitro: GPCR Activation Assay Measuring GTP [γ-^35S] Binding to Membranes Prepared from CHO Cells Expressing Human EDG Receptors
# S1P1 (EDG-1) GTP [γ-^35S] binding assay: Homogenized membranes are prepared from CHO cell clones stably expressing a human EDG-1 N-terminal c-myc tag. Cells are grown in suspension in two 850 cm^2 roller bottles for three or fours days before harvesting. The cells are centrifuged down, washed once with cold PBS, and resuspended in ≦20 ml of Buffer A (20 mM HEPES, pH 7.4, 10 mM EDTA, EDTA-free complete protease inhibitor cocktail [1 tablet/25 ml]). The cell suspension is homogenized on ice, using a Polytron homogenizer at 30000 rpm at three intervals of 15 seconds each. The homogenate is first centrifuged at 2000 rpm on a tabletop low speed centrifuge for 10 minutes. The supernatant, after passing through a cell strainer, is then re-centrifuged at 50,000×g for 25 minutes at 4° C. The pellet is resuspended into buffer B (15% glycerol, 20 mM HEPES, pH 7.4, 0.1 mM EDTA, EDTA-free complete protease inhibitor cocktail [1 tablet/10 ml]). Protein concentration of the preparation is determined using the BCA Protein Assay kit (Pierce) using BSA as standard. The membranes are aliquoted and kept frozen at −80° C.
# Solutions of test compounds ranging from 10 mM to 0.01 nM are prepared in DMSO. S1P is diluted in 4% BSA solution as positive controls. The desired amount of membrane preparation is diluted with ice-cold assay buffer (20 mM HEPES, pH 7.4, 100 mM NaCl, 10 mM MgCl2, 0.1% Fatty acid-free BSA, 5 μM GDP) and vortexed well. 2 μl or less of compound is distributed into each well of a round-bottom 96-well polystyrene assay plate, followed by addition of 100 μl of diluted membranes (3-10 μg/well) and kept on ice until the addition of hot GTPγS. [^35S]-GTPγS is diluted 1:1000 (v/v) with cold assay buffer and 100 μl is added into each well. The reaction is carried out at room temperature for 90 minutes before the membranes are harvested onto Perkin-Elmer Unifilter® GF/B-96 filter plate using a Packard Filtermate Harvester. […]
# T1 sequence (P21453 whole entry): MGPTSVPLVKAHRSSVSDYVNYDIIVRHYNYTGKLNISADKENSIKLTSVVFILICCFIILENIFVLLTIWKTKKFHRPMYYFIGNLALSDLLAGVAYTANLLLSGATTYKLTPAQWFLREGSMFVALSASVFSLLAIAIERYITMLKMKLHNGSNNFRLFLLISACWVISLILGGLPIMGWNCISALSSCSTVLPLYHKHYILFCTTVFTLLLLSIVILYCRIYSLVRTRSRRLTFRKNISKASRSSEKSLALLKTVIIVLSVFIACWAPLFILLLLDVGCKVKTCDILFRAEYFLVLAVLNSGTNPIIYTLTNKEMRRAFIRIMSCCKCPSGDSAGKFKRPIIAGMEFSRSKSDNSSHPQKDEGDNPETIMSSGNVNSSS
row,EC50 [µM],SMILES
1,< 1,"O=C(O)CCNS(=O)(=O)c1ccc(-c2nc(-c3ccc(-c4ccccc4)c(C(F)(F)F)c3)no2)cc1 [Example 4, 3-{4-[3-(2-Trifluoromethyl-biphenyl-4-yl)-[1,2,4]oxadiazol-5-yl]-benzene-sulfonylamino}-propionic acid]"
2,< 1,NS(=O)(=O)c1ccc(-c2nc(-c3ccc(-c4ccccc4)c(C(F)(F)F)c3)no2)cc1 [Example 13]
3,< 1,O=C(O)CCC(=O)Nc1ccc(-c2nc(-c3ccc(C4CCCCC4)c(C(F)(F)F)c3)no2)cc1 [Example 21]
